The structures appear in SMILES notation. Where two headings read alike, the source gives them in different places.

In series [1] the test system is HIV. The following applies: cited from earlier work.
For series [2], the system named is AAG (human α1-acid glycoprotein). Nature of the series: Isothermal titration calorimetry (ITC) of PI binding to AAG. Conditions: for binding to AAG (titration profile): 80 μM PI into 12 μM, 1.45 mL of AAG; for Ka to AAG: ITC, Table 2; for Ka: binding to AAG, 37° C., 20 mM phosphate buffer, pH 7.4, average of duplicate experiments. On the procedure: Briefly, the isothermal titration calorimetry (ITC) measurements are designed to obtain primarily the enthalpy of each complex formation and their stoichiometries. The heats of each reaction are determined by integration of the peaks observed. After the contribution from the heat of dilution of each injection is subtracted, the heat is plotted against the molar ratio of PIs to AAG. The binding constant (Ka), enthalpy of binding (ΔH^0), and stoichiometry (N) of the formation of complex are determined by fitting the binding isotherm against the binding equation using an independent binding model. Data analysis may be carried out with, for example, MicroCal ORIGN software, usually provided with the instrument.
Binding experiments were run using Isothermal Titration Calorimetry (ITC) to measure bound and unbound protease inhibitors.
Sample preparation: Solutions of AAG and its variants for ITC experiments were made up in 20 mM […] buffer, pH 7.4. All compounds were prepared as stock solution of 20 mM or 25 mM in DMSO and thereafter diluted to desired concentration in the same buffer. For all ITC experiments, the percentage of DMSO is below 1%.
ITC Experiments: The isothermal titration measurements of the binding of various PIs to AAG can be typically carried out at 37° C. using a VP-ITC titration calorimeter (MicroCal, Northampton, Mass.). The instrument was electrically calibrated by means of a standard electric pulse as recommended by the manufacturer. […] A 300 μL syringe was used for the titrant, mixing was effected by stirring this syringe at 300 rpm during equilibration and experiment. Typically after a preliminary 2 μL injection, 25 injections of 10 μL each were performed with a 250s interval between injections in a single titration. The reference cell of the calorimeter filled with water, acts as a thermal reference to the sample cell. […] All solutions were degassed before titrations to reduce the noise. The buffer contained 20 mM sodium phosphate, pH 7.4.
The area of each peak was integrated and corrected for the PI heat of dilution, which was estimated by a separate experiment by injecting the PI into the buffer. By fitting the titration curve with a nonlinear least-squares method, the enthalpy change ΔH^0, and the binding constant Ka of PI binding to AAG can be estimated with the assumption of an independent binding site model.
The values provided are the average of duplicate experiments. […] The ΔS^0 function was calculated from the standard thermodynamic relation ΔG^0=ΔH^0−TΔS^0.

Series [3] deals with HIV. Nature of the series: Antiviral assay in the absence of AAG (Table 2). The following applies: Human immunodeficiency virus 1. The format is cell-based. From the text: In table below, a data table with the binding affinity of 3 PI's to AAG (Ka), their free drug concentrations, calculated IC50s, and calculated efficacy were extracted from the ITC results and compared to IC50s from an antiviral assay in the absence of AAG.

In the next series the test system is AAG. Nature of the series: Calculation of IC50 in presence of AAG, free drug concentration and efficacy from ITC Ka. The arrangement: species or system human. The following applies: for Free drug Concentration: calculated from ITC results; for IC50: read-out: Predicted IC50 @ 1 mg/mL AAG, calculated from Ka and IC50 without AAG. An excerpt:
The quantification of the concentration of protease inhibitor in free form maybe performed by direct measurement of binding affinity Kd using isothermal titration calorimetry; and calculating the concentration of protease inhibitor in free form using the formula:
[formula] where Pt and Lt, are total protein and drug concentrations, and Kd is the equilibrium dissociation constant obtained in step (iii).
[formula] where PL is the protein-bound concentration of PIs, L0 and P0 are the total concentration of PIs and plasma protein, Kα and n are the binding constants and number of binding sites, respectively.
The quantification of the antiviral activity or EC50 value of a protease inhibitor in the presence of at least one plasma protein may be performed by direct measurement of binding affinity Ka using isothermal titration calorimetry; and calculating the antiviral activity or EC50 value of the protease inhibitor using the formula: […]
The quantification of the in vivo efficacy of a protease inhibitor in human plasma may be performed by direct measurement of binding affinity Ka using isothermal titration calorimetry; calculating the concentration of protease inhibitor in free form using the formulas described above; and calculating the in vivo efficacy of the protease inhibitor in human plasma using the formula: […]

For series [4], the system named is HIV. Nature of the series: Cell-based anti-HIV assay (tetrazolium-based, Pauwels et al.) in the absence of AAG and in the presence of 1 mg/mL AAG. The following applies: change in experimental EC50, absence of AAG vs presence of 1 mg/mL AAG. Here is the method: The values provided are the average of duplicate experiments. […] The standard free energies (ΔG^0) were obtained from the equation ΔG^0=−RT1nKa, in which the Ka is the binding constant at 37° C. The ΔS^0 function was calculated from the standard thermodynamic relation ΔG^0=ΔH^0−TΔS^0. […] Methods, 1988, 20(4), 309–21.

In series [5] the test system is HIV. Conditions: in vivo, Fischl et al.; extensive protein binding; cited from earlier work.
[6] abbreviates: antiviral assay in the absence of AAG, read-out: IC50.

As to `CC(C)[C@H](NC(=O)N(C)Cc1ccccn1)C(=O)N[C@@H](Cc1ccccc1)[C@H](O)[C@H](O)[C@H](Cc1ccccc1)NC(=O)[C@@H](NC(=O)N(C)Cc1ccccn1)C(C)C` [A77003], the “antiviral efficacy as the concentration of AAG was increased” value in the series with HIV [1] (in vitro, Bilello et al.) was “decreased”.
Consider `CC(C)CN(C[C@@H](O)[C@H](Cc1ccccc1)NC(=O)O[C@H]1CCOC1)S(=O)(=O)c1ccc(N)cc1` [APV, amprenavir], for which the “binding to AAG (titration profile)” value in series [2] was “binds to AAG accompanied with an exothermic heat effect”.
Consider `CC(C)CN(C[C@@H](O)[C@H](Cc1ccccc1)NC(=O)OC1CO[C@H]2OCC[C@@H]12)S(=O)(=O)c1ccc(N)cc1` (some centres unmarked) [Compound number 1], for which the “Ka to AAG” value in series [2] is listed as 1.92E+06. The results for the IC50 in the series on HIV [3] and with AAG were 3 nM and 74.6 nM, respectively. Also, the “Free drug Concentration” value with AAG is 1300 nM.
Turning to `CC(C)CN(C[C@@H](O)[C@H](Cc1ccccc1)NC(=O)O[C@H]1CO[C@H]2OCC[C@H]21)S(=O)(=O)c1ccc2c(c1)OCO2` [Compound number 2], the “Ka to AAG” value in series [2] was found to be 2.19E+06. Besides, in the series with HIV [3] (setting [6]), the IC50 worked out at 0.8 nM. In addition, in the series with AAG, the “Free drug Concentration” value is 1190 nM and the IC50 is 22.7 nM.
Consider `COc1ccc(S(=O)(=O)N(CC(C)C)C[C@@H](O)[C@H](Cc2ccccc2)NC(=O)OC2CO[C@H]3OCC[C@@H]23)cc1` (some centres unmarked) [Compound number 3], for which the “Ka to AAG” value in series [2] was 1.24E+06. Also, the IC50 in the series on HIV [3] (setting [6]) turned out to be 0.5 nM. In the series on AAG, the “Free drug Concentration” value is 1710 nM and the IC50 was 8.25 nM.
Consider `CC(C)(C)NC(=O)[C@@H]1CN(Cc2cccnc2)CCN1C[C@@H](O)C[C@@H](Cc1ccccc1)C(=O)N[C@H]1c2ccccc2C[C@H]1O` [IDV, indinavir], for which, in series [2], the “binding to AAG (titration profile)” value was “does not bind to AAG” and the Ka entry was “No binding”. Further, the “Fold Inc. EC50” value with HIV [4] is 1.0.
On to `Cc1cccc(C)c1OCC(=O)N[C@@H](Cc1ccccc1)[C@@H](O)C[C@H](Cc1ccccc1)NC(=O)[C@H](C(C)C)N1CCCNC1=O` [LPV, lopinavir], for which, in series [2], the Ka was 5.77 ± 0.72 10^6M^−1. For the same compound, the “Fold Inc. EC50” value with HIV [4] is recorded as 37.1.
The corresponding values for `Cc1c(O)cccc1C(=O)N[C@@H](CSc1ccccc1)[C@H](O)CN1C[C@H]2CCCC[C@H]2C[C@H]1C(=O)NC(C)(C)C` [NFV, nelfinavir] are 2.35 ± 0.42 10^6M^−1 and 22.9.
The corresponding values for `CC(C)c1nc(CN(C)C(=O)N[C@H](C(=O)N[C@@H](Cc2ccccc2)C[C@H](O)[C@H](Cc2ccccc2)NC(=O)OCc2cncs2)C(C)C)cs1` [RTV, ritonavir] are 1.55 ± 0.49 10^6M^−1 and 18.9.
Take `CC(C)CN(C[C@@H](O)[C@H](Cc1ccccc1)NC(=O)[C@H](CC(N)=O)NC(=O)c1ccc2ccccc2n1)C(=O)NC(C)(C)C` [SC-52151, telinavir]: the Ka in series [2] is given as 2.38 ± 0.60 10^6M^−1. Further, the “Fold Inc. EC50” value in the series on HIV [4] stood at 29.2. In addition, the “antiretroviral activity in vitro” value in the series with HIV [1] (Fischl et al.) is “potent”. Also, the clinical efficacy entry in the series on HIV [5] is on record as “lack of clinical efficacy”.
Consider `CC(C)(C)NC(=O)[C@@H]1C[C@@H]2CCCC[C@@H]2CN1C[C@@H](O)[C@H](Cc1ccccc1)NC(=O)[C@H](CC(N)=O)NC(=O)c1ccc2ccccc2n1` [SQV, saquinavir], for which the Ka in series [2] is 0.34 ± 0.12 10^6M^−1. The “Fold Inc. EC50” value in the series with HIV [4] was 5.6.

(Values after patent publication US7087373B2, “Methods for determining plasma free drug concentration by direct measurement of binding affinity of protease inhibitors to plasma proteins” (priority 2001, dated 2006).)
